# Results published in patent publication US11921105B2, “Method for identifying positive allosteric modulators for odorant receptors” (FIRMENICH SA, priority 2017, dated 2024).
# Read-outs that look alike come from different tables or passages of the source.
# Assays:
# [1] = target: T1, OR10J5 olfactory receptor (Homo sapiens, UniProt Q8NHC4, R233W); assay: Single point binary mixture screen (LYRAL® + test compound) for OR10J5 activity enhancement; format: cell-based; settings: LYRAL® 4.6 and test compound 300 μM; numbered by decreasing OR10J5 activity (span)
# T1 construct: Lucy (cleavable leucine-rich signal peptide) (N); FLAG (N); Rho (first 20 aa of bovine rhodopsin) (N); expressed in transfected cells
# T1 sequence (Q8NHC4 1-309 R233W): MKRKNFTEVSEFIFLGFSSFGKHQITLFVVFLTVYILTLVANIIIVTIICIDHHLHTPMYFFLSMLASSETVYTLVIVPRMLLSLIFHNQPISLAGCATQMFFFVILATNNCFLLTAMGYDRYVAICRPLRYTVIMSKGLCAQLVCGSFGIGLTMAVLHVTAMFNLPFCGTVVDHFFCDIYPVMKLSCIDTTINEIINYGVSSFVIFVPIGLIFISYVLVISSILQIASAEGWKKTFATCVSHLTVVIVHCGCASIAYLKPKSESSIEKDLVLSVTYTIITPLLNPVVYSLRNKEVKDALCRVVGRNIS
# Excerpt: The Lucy-Flag-Rho-tagged receptor is co-transfected with the olfactory canonical G-protein Golf and exposed to a binary mixture of a single concentration of a floral muguet compound and a test compound.
# A dose response curve showing the activation of OR10J5 in response to the floral muguet compound […], 4-(4-hydroxy-4-methylpentyl)cyclohex-3-ene-1-carbaldehyde or a mixture thereof (sold under the tradename LYRAL®, hereinafter referred to as “LYRAL®”) is shown in FIG. 15. Using a cell-based assay, OR10J5 activity was tested in a HEK293T cell line wherein the endogenous chaperone RTP1 gene has been activated and the odorant receptor chaperone was expressed according to the methods disclosed in International Patent Application Publication No. WO2016/201153 A1. The Flag-Rho-tagged receptor was co-transfected with the olfactory canonical G-protein Golf and was exposed to a binary mixture of a single concentration of LYRAL® and a test compound.
# A library of volatile compounds was used to create binary mixtures of each compound with LYRAL® at approximately EC20, a concentration eliciting only approximately 20% of full activity level of OR10J5 by itself. An activation cell-based assay was used for the initial enhancer candidate identification. Single binary mixture-induced receptor activity was detected by measuring the cAMP increase in the cytosol using an HTRF (Homogenous Time-Resolved Fluorescence unit) based kit (CisBio, cAMP dynamic 2 kit, 62AM4PEJ).
# 800 binary mixtures were created by mixing a LYRAL® stock solution with a stock solution of each test compound to a final concentration 4.6 and 300 μM, respectively. Stock solutions were made of compounds dissolved in pure DMSO. Each mixture was presented to a cell line expressing the OR10J5 olfactory receptor. The final concentration of DMSO in each binary mixture was 0.1%, and had no visible effect on the cells (see FIG. 16).
# The resulting activation was then measured and compared to LYRAL® alone (defining the baseline of the enhancement assay). The quality of the HTS process was determined and the window variability and signal reliability were assessed by calculating the Z′ value of each plate. […] These OR10J5 olfactory receptor agonists further confirmed that the dynamic range of the assay window was sufficient (as the responses recorded were well above baseline) and thus likely sensitive enough to detect even low levels of putative enhancement.
# OR5AN1 = target: T2, OR5AN1 (Homo sapiens, UniProt Q8NGI8); assay: OR5AN1 MUSCENONE® dose-response at serial enhancer concentrations, allosteric EC50 shift model; format: cell-based; settings: enhancer 0 to 1 mM
# T2 construct: FLAG (N); Rho (first 20 aa of bovine rhodopsin) (N); expressed in transfected cells
# T2 sequence (Q8NGI8 1-311): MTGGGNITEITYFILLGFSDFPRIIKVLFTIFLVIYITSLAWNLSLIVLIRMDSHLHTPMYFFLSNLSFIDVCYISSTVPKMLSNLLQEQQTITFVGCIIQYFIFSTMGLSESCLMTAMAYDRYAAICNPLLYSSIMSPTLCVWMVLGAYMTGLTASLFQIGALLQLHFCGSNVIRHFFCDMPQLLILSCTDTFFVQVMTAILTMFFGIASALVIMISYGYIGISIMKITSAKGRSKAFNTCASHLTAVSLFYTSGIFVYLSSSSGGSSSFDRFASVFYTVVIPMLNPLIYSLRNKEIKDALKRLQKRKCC
# Method: The level of enhancement of OR5AN1's activation was evaluated at distinct concentrations of the enhancer. […] The curves were obtained by applying the simplified Allosteric EC50 shift effect equation (available in Prism5, v. 5.02) derived from the ternary complex interaction model. The enhancement levels recorded were not linearly dependent on the concentration of the enhancer, and the following key parameters values for a (the cooperativity factor) and KB (the equilibrium dissociation constant of TDA) obtained from the model: α=15.7 and KB=259 μM. α>1 is indicative of positive allosteric modulation.
# Olfr1440 = target: T3, Olfr1440 (Mus musculus, UniProt Q8VFV4); assay: Olfr1440 MUSCENONE®-induced activation in the presence of enhancer (control); format: cell-based; settings: FIG. 5
# T3 construct: expressed in transfected cells
# T3 sequence (Q8VFV4 1-315): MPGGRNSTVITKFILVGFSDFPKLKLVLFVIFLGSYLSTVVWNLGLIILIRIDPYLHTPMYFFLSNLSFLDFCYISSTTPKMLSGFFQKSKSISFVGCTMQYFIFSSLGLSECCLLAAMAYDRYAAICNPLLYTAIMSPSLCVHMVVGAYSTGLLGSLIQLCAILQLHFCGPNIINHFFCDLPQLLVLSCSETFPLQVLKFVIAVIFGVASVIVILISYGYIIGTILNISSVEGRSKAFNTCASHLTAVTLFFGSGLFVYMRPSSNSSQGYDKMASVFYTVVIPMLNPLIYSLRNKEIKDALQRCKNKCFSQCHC
# Method: Furthermore and as a control, a similar experiment was performed on the mouse MUSCENONE® responsive odorant receptor Olfr1440, the ortholog of OR5AN1.
# [2] = target: T4, OR5AN1 olfactory receptor (Homo sapiens, UniProt Q8NGI8); assay: OR5AN1 dose-response of musk agonist with and without modulator, and of candidate alone (EC50 shift, span); format: cell-based
# T4 construct: FLAG (N); Rho (first 20 aa of bovine rhodopsin) (N); expressed in transfected cells
# T4 sequence (Q8NGI8 1-311): T2 sequence (Q8NGI8 1-311)
# Method: 15 candidates, marked as “enhancement” in Table 2 were identified. Strikingly, 80% of these putative enhancers (12/15) belonged to the same class of chemicals: unsaturated aliphatic aldehydes. Next, two parallel dose-response experiments to confirm the true enhancement properties of the potential candidates were performed. First, a dose-response of each individual candidate was performed to determine if it was an agonist by itself. Second, a MUSCENONE® dose-response curve in the presence and absence of a 250 μM concentration of the putative modulator was assessed for EC50 shifts.
# Dose response curves to MUSCENONE® were obtained in the presence of 250 μM of each compound and compared to a dose-response curve of MUSCENONE® alone. The resulting enhancement was quantified by means of EC50-fold shift (potency increase) and the efficacy span ratio (efficacy increase).
# The EC50-fold shift was obtained by […]. The span ratio was obtained by dividing the span of MUSCENONE®+compound by the reference span of MUSCENONE® alone. Specifically, diverse aliphatic α-β mono- or poly-unsaturated molecules have been compared.
# human panelists = assay: Human MUSCENONE® odor detection threshold (ODT), forced-choice triangle tests with background odor; format: in vivo; settings: background compound at 0.1%; 2/3 correct responses
# Method: Sensitivity of human individuals to MUSCENONE® was evaluated by performing an odor detection threshold (ODT) test. The ODT test consisted of identifying the concentration for which 50%, preferably 66%, of the panelists are able to determine which of three containers contains the target compound MUSCENONE® in a forced-choice triangle tests. Two tests were performed to calculate the ODT in mixtures containing MUSCENONE® plus a perceivable background odor of chemically similar molecules a) the enhancer tridecylenic aldehyde and b) the non-enhancing volatile compound, nonanal.
# 27 panelists were given a series of triangle tests with increasing concentration of MUSCENONE® in the presence of nonanal at a concentration of 0.1%. Within each triangle test, the three samples contained nonanal at 0.1% and one sample also contained MUSCENONE®. In each triangle test, the panelists were asked to identify the one sample that was different from the other two samples. The ODT was calculated by fitting a non-linear regression model onto the data and calculating the MUSCENONE® concentration at which the proportion of correct responses was equal to 2/3 (66%, the midpoint between chance rate 1/3 and all correct answers 1). […]
# OR10J5 [3] = target: T5, OR10J5 (Homo sapiens, UniProt Q8NHC4, R233W); assay: OR10J5 LYRAL® dose-response at serial enhancer concentrations, allosteric EC50 shift model; format: cell-based
# T5 construct: Lucy (cleavable leucine-rich signal peptide) (N); FLAG (N); Rho (first 20 aa of bovine rhodopsin) (N); expressed in transfected cells
# T5 sequence (Q8NHC4 1-309 R233W): T1 sequence (Q8NHC4 1-309 R233W)
# Method: Functional dose-response experiments were performed to reveal the allosteric nature of the interaction between heliopropanal, 3-(4-methylcyclohex-3-en-1-yl)butanal, melonal and heptanal and OR10J5. The level of enhancement of OR10J5's activation was evaluated at distinct concentrations of each enhancer. Using the same cell-based assay described earlier, dose response curves of OR10J5 to LYRAL® in the presence of serial concentrations of the enhancers spanning from 0 to 600 μM were performed, see FIG. 19. The curves were obtained by applying the simplified Allosteric EC50 shift effect equation (available in Prism7) derived from the ternary complex interaction model. The enhancement levels recorded were not linearly dependent on the concentration of the enhancer, and the following key parameters values for α (the cooperativity factor) and KB (the equilibrium dissociation constant of the enhancer) were obtained from the model for each enhancer: heliopropanal, α=6.3 and KB=10 μM; 3-(4-methylcyclohex-3-en-1-yl)butanal, α=7.5 and KB=15 μM; melonal, α=4.1 and KB=16 μM; and heptanal; α=3.2 and KB=51 μM. α>1 is indicative of positive allosteric modulation.
# OR10J5 [4] = target: T5, OR10J5; assay: OR10J5 (+−)-2,5-dimethyl-2-indanmethanol dose-response with test compound; format: cell-based; settings: within the dynamic range of the dose response
# Method: OR10J5 activity enhancement was tested with an additional agonist and with one of the test compounds and conditions described in the Examples above. Dose response curves to (+−)-2,5-dimethyl-2-indanmethanol was obtained in the presence of a steady concentration of the test compound and compared to a dose-response curve of the agonist alone. The resulting enhancement was quantified by means of EC50-fold shift (potency increase) and the efficacy span ratio (efficacy increase) as described above.
compound,measurement,setting,value
Cc1ccc(CC(C)C=O)cc1 (stereo not shown) [Hit 36],Hit Type,[1],Enhancement
O=Cc1ccc2c(c1)OCO2 [Hit 37],Hit Type,[1],Enhancement
CC1=CC(C)C(C=O)C(C)C1 (stereo not shown) [Hit 39],Hit Type,[1],Enhancement
CCc1occc(=O)c1O [Hit 40],Hit Type,[1],Enhancement
CCc1ccc(C=O)cc1 [Hit 41],Hit Type,[1],Enhancement
C[C@@H]1CC[C@H]2[C@H](C)C(=O)O[C@@H]2C1 [Hit 42],Hit Type,[1],Enhancement
COC(C)(C)CCCC(C)C=O (stereo not shown) [Hit 43],Hit Type,[1],Enhancement
CCCCCC/C=C/C=O [Hit 44],Hit Type,[1],Enhancement
CCCCCC/C=C/C=O [Nonylenic aldehyde],α (cooperativity factor),OR5AN1,28.8
same,Kb,OR5AN1; read-out: KB (equilibrium dissociation constant),96 µM
"CCCCCCCCCC/C=C/C=O [TDA, tridecylenic aldehyde]",enhancement of Olfr1440 MUSCENONE®-induced activity,Olfr1440,did not enhance
same,activation of OR5AN1 by the compound by itself,[2]; compound alone,did not activate
same,activation as % of the MUSCENONE® activation window,"[2]; compound alone, above approximately 100 μM",less than 8%
same,maximal activation level (span) of MUSCENONE®,[2]; enhancer at 250 μM,increased span
same,MUSCENONE® ODT value when mixed with the compound,human panelists,0.09%
CC(C=O)Cc1ccc2c(c1)OCO2 (stereo not shown) [heliopropanal],Kb,OR10J5 [3],10 µM
same,α (cooperativity factor),"OR10J5 [3]; LYRAL®, enhancer 0 to 600 μM",6.3
same,"efficacy increase of (+−)-2,5-dimethyl-2-indanmethanol",OR10J5 [4],1.7 fold
CC(C)=CCCC(C)C=O (stereo not shown) [melonal],α (cooperativity factor),"OR10J5 [3]; LYRAL®, enhancer 0 to 600 μM",4.1
same,Kb,"OR10J5 [3]; LYRAL®, enhancer 0 to 600 μM, read-out: KB (equilibrium dissociation constant of the enhancer)",16 µM
"CCCCCCCCC=O [nonanal, reference compound]",MUSCENONE® ODT value when mixed with the compound,human panelists,0.93%
C=CCCCCCCCCC(=O)O [undecenoic acid],enhancement of OR5AN1 MUSCENONE® response (SAR),[2]; 250 μM of each compound,absence of enhancement
